Results taken from patent US12653191B2, “Active compound combinations” (Bayer Aktiengesellschaft, priority 2020, dated 2026).
Read-outs that look alike come from different tables or passages of the source.

How the values were obtained:
Cordana musae [1] = assay: in vitro-Test with fungal microorganisms, Method A (tables E1-E8); format: cell-based; details: Neocordana musae
Procedure, shortened: (§1)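 Broth microdilution-type growth test in potato dextrose medium with spores or mycelium of the fungus, compound pre-dried from methanol/emulsifier. Efficacy from 620 nm extinction after 3-5 days at 20° C, scaled 0% (untreated growth) to 100% (no growth).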

Parastagonospora nodorum [2] = assay: in vitro-Test with fungal microorganisms, Method B (tables H5-H8); format: cell-based; details: Parastagonospora nodorum
Procedure, shortened: (§2)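 Steps: solvent evaporation leaves the compound coating the wells; fungus-inoculated liquid growth medium goes on top; absorbance at 600 nm is measured; incubation runs 3 to 7 days at 20° C. with 85% relative humidity. Inhibition is then read photometrically and expressed as efficacy against untreated control.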

Parastagonospora nodorum [3] = assay: in vitro-Test with fungal microorganisms, Method A (tables H1-H4); format: cell-based
Procedure, shortened: as §1

Botrytis cinerea = assay: in vitro-Test with fungal microorganisms, Method A (tables B1-B14); format: cell-based; details: Botrytis cinerea
Procedure, shortened: as §1

Fusarium culmorum [4] = assay: in vitro-Test with fungal microorganisms, Method B (tables G5-G15); format: cell-based; details: Fusarium culmorum, read-out: Efficacy
Procedure, shortened: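 Efficacy, relative to untreated control (0% = growth as in control, 100% = no growth), from photometric growth measurement at 600 nm after 3 to 7 days at 20° C., 85% relative humidity. Compound applied in methanol+emulsifier, solvent evaporated, then spore/mycelium-amended liquid medium added.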

Alternaria alternata = assay: in vitro-Test with fungal microorganisms, Method B (tables A13-A22); format: cell-based; details: Alternaria alternata
Procedure, shortened: as §2

[5] = tested on: Colletotrichum lindemuthianum; assay: in vitro-Test with fungal microorganisms, Method A (tables D1-D8); format: cell-based; details: Colletotrichum lindemuthianum
Procedure, shortened: as §1

Fusarium culmorum [6] = assay: in vitro-Test with fungal microorganisms, Method A (tables G1-G4); format: cell-based; details: Fusarium culmorum, alone, read-out: Efficacy
Procedure, shortened: as §1

Diaporthe citri [7] = assay: in vitro-Test with fungal microorganisms, Method B (tables F12-F15); format: cell-based
Procedure, shortened: as §2

Cercospora beticola [8] = assay: in vitro-Test with fungal microorganisms, Method B (tables C11-C20); format: cell-based; details: Cercospora beticola, read-out: Efficacy %
Procedure, shortened: as §2

[9] = tested on: Ustilago segetum var. avenae; assay: in vitro-Test with fungal microorganisms, Method B (tables I6-I11); format: cell-based; details: read-out: Efficacy %
Procedure, shortened: as §2

[10] = tested on: Ustilago segetum var. avenae; assay: in vitro-Test with fungal microorganisms, Method A (tables I1-I5); format: cell-based
Procedure, shortened: as §1

Cercospora beticola [11] = assay: in vitro-Test with fungal microorganisms, Method A (tables C1-C10); format: cell-based
Procedure, shortened: as §1

Colletotrichum coccodes = assay: in vitro-Test with fungal microorganisms, Method B (tables J1-J11); format: cell-based; details: Colletotrichum coccodes
Procedure, shortened: as §2

Cordana musae [12] = assay: in vitro-Test with fungal microorganisms, Method B (tables E9-E16); format: cell-based; details: for Efficacy %: single substance
Procedure, shortened: as §2

Alternaria alternate = assay: in vitro-Test with fungal microorganisms, Method A (tables A1-A12); format: cell-based, Alternaria alternata
Procedure, shortened: as §1

Diaporthe citri [13] = assay: in vitro-Test with fungal microorganisms, Method A (tables F1-F11); format: cell-based; details: Diaporthe citri
Procedure, shortened: as §1

[14] = read-out: Efficacy %, mixing partner alone, 0.04 ppm
[15] = read-out: Efficacy %, mixing partner alone, 0.2 ppm
[16] = read-out: Efficacy %, mixing partner alone, 1.0 ppm
[17] = read-out: Efficacy %, mixing partner alone, 5.0 ppm
[18] = read-out: Efficacy %, alone, 1.0 ppm
[19] = read-out: Efficacy %, alone, 5.0 ppm

`N#Cc1c[nH]cc1-c1cccc2c1OC(F)(F)O2` [(13.001) fludioxonil, fludioxonil] showed an inhibition of growth at 0.04 ppm (Cordana musae [1]; [14]) of 2%, an inhibition of growth at 0.2 ppm (Cordana musae [1]; [15]) of 0% and an inhibition of growth at 1 ppm (Cordana musae [1]; [16]) of 83%. For the same molecule, the inhibition of growth at 5 ppm (Cordana musae [1]; [17]) was 55%, the inhibition of growth at 0.04 ppm (Cordana musae [1]; read-out: Efficacy %, single substance, 0.04 ppm) was 0% and the inhibition of growth at 1 ppm (Parastagonospora nodorum [2]; read-out: Efficacy, 1 ppm) was 58%. The inhibition of growth at 5 ppm (Parastagonospora nodorum [2]; read-out: Efficacy, 5 ppm) was 98%, the Efficacy (Parastagonospora nodorum [3]; 0.04 ppm) was 0% and the Efficacy (Parastagonospora nodorum [3]; 0.2 ppm) was 0%. The Efficacy (Parastagonospora nodorum [3]; single active compound, 0.04 ppm) was 0%, the Efficacy (Parastagonospora nodorum [3]; single active compound, 0.2 ppm) was 0% and the Efficacy (Parastagonospora nodorum [3]; single active compound, 1.0 ppm) was 38%. It also gave an Efficacy (Parastagonospora nodorum [3]; single active compound, 5.0 ppm) of 64%, an inhibition of growth at 0.2 ppm (Botrytis cinerea; read-out: Efficacy %, alone, 0.2 ppm) of 100% and an inhibition of growth at 1 ppm (Botrytis cinerea; [18]) of 100%. It also gave an inhibition of growth at 5 ppm (Botrytis cinerea; [19]) of 100%, an inhibition of growth at 0.04 ppm (Botrytis cinerea; read-out: Efficacy, 0.04 ppm) of 19% and an inhibition of growth at 0.2 ppm (Botrytis cinerea; read-out: Efficacy, 0.2 ppm) of 100%. For the same molecule, the inhibition of growth at 0.04 ppm (Fusarium culmorum [4]; alone) was 0%, the inhibition of growth at 0.2 ppm (Fusarium culmorum [4]; alone) was 22% and the inhibition of growth at 1 ppm (Fusarium culmorum [4]; alone) was 68%. The inhibition of growth at 5 ppm (Fusarium culmorum [4]; 5 ppm, alone) was 98%, the inhibition of growth at 0.04 ppm (Fusarium culmorum [4]; single active compound) was 0% and the inhibition of growth at 0.2 ppm (Fusarium culmorum [4]; single active compound) was 26%. For the same molecule, the inhibition of growth at 1 ppm (Fusarium culmorum [4]; single active compound) was 88%, the inhibition of growth at 1 ppm (Alternaria alternata; read-out: Efficacy, 1 ppm) was 88% and the inhibition of growth at 5 ppm (Alternaria alternata; read-out: Efficacy, 5 ppm) was 100%. The inhibition of growth at 0.04 ppm (Alternaria alternata; read-out: Efficacy, single compound, 0.04 ppm) was 13%, the inhibition of growth at 0.2 ppm (Alternaria alternata; read-out: Efficacy, single compound, 0.2 ppm) was 18% and the inhibition of growth at 5 ppm (Alternaria alternata; read-out: Efficacy, single compound, 5 ppm) was 99%. The inhibition of growth at 0.04 ppm [5, 14] was 11%, the inhibition of growth at 0.2 ppm [5, 15] was 60% and the inhibition of growth at 1 ppm [5, 16] was 85%. For the same molecule, the inhibition of growth at 5 ppm [5, 17] was 90%, the inhibition of growth at 0.04 ppm ([5]; read-out: Efficacy %, single active at 0.04 ppm) was 0% and the inhibition of growth at 0.2 ppm ([5]; read-out: Efficacy %, single active at 0.2 ppm) was 58%. For the same molecule, the inhibition of growth at 5 ppm ([5]; read-out: Efficacy %, single active at 5.0 ppm) was 88%, the inhibition of growth at 0.2 ppm (Fusarium culmorum [6]; 0.2 ppm) was 36% and the inhibition of growth at 1 ppm (Fusarium culmorum [6]; 1.0 ppm) was 98%. The inhibition of growth at 5 ppm (Fusarium culmorum [6]; 5.0 ppm) was 99%, the Efficacy (Diaporthe citri [7]; Table F12, 0.2 ppm alone) was 0% and the Efficacy (Diaporthe citri [7]; Table F12, 1 ppm alone) was 9%. For the same molecule, the Efficacy (Diaporthe citri [7]; Table F13, 1 ppm alone) was 41%, the Efficacy (Diaporthe citri [7]; Table F13, 5 ppm alone) was 0% and the inhibition of growth at 5 ppm (Cercospora beticola [8]) was 93%. It also gave an inhibition of growth at 0.04 ppm [9] of 55%, an inhibition of growth at 0.2 ppm [9] of 93% and an inhibition of growth at 5 ppm [9] of 100%. It also gave an inhibition of growth at 0.04 ppm ([10]; read-out: Efficacy %, alone, 0.04 ppm) of 19%, an inhibition of growth at 1 ppm [10, 18] of 100% and an inhibition of growth at 5 ppm [10, 19] of 100%. The Efficacy % (Cercospora beticola [11]; 5.0 ppm alone) was 98%, the inhibition of growth at 0.04 ppm (Cercospora beticola [11]; Cercospora beticola, read-out: Efficacy %, 0.04 ppm) was 0% and the inhibition of growth at 0.04 ppm (Cercospora beticola [11]; Cercospora beticola, read-out: Efficacy %, 0.04 ppm alone) was 0%. The inhibition of growth at 0.2 ppm (Cercospora beticola [11]; Cercospora beticola, read-out: Efficacy %, 0.2 ppm alone) was 14%, the inhibition of growth at 1 ppm (Cercospora beticola [11]; Cercospora beticola, read-out: Efficacy %, 1.0 ppm) was 55% and the inhibition of growth at 5 ppm (Cercospora beticola [11]; Cercospora beticola, read-out: Efficacy %, 5.0 ppm) was 90%. For the same molecule, the inhibition of growth at 5 ppm (Cercospora beticola [11]; Cercospora beticola, read-out: Efficacy %, 5.0 ppm alone) was 93%, the inhibition of growth at 0.04 ppm (Colletotrichum coccodes; read-out: Efficacy %, 0.04 ppm) was 54% and the inhibition of growth at 1 ppm (Colletotrichum coccodes; read-out: Efficacy %, 1 ppm) was 100%. It also gave an inhibition of growth at 5 ppm (Colletotrichum coccodes; read-out: Efficacy %, 5 ppm) of 100%, an inhibition of growth at 0.04 ppm (Colletotrichum coccodes; read-out: Efficacy %, single active compound at 0.04 ppm) of 74% and an inhibition of growth at 0.04 ppm (Cordana musae [12]; Neocordana musae, read-out: Efficacy) of 6%. For the same molecule, the Efficacy % (Cordana musae [12]; 0.2 ppm) was 0%, the Efficacy % (Cordana musae [12]; 1 ppm) was 0% and the Efficacy % (Cordana musae [12]; 5 ppm) was 11%. For the same molecule, the inhibition of growth at 0.04 ppm (Alternaria alternate; Alternaria, read-out: Efficacy %, applied alone, 0.04 ppm) was 9%, the inhibition of growth at 0.2 ppm (Alternaria alternate; Alternaria, read-out: Efficacy %, applied alone, 0.2 ppm) was 17% and the inhibition of growth at 1 ppm (Alternaria alternate; Alternaria, read-out: Efficacy %, applied alone, 1.0 ppm) was 97%. It also gave an inhibition of growth at 5 ppm (Alternaria alternate; Alternaria, read-out: Efficacy %, applied alone, 5.0 ppm) of 100%, an Efficacy % (Alternaria alternate; applied alone, 0.04 ppm) of 0% and an inhibition of growth at 0.04 ppm (Diaporthe citri [13]; read-out: Efficacy, applied alone, 0.04 ppm) of 0%. It also gave an inhibition of growth at 0.2 ppm (Diaporthe citri [13]; read-out: Efficacy, applied alone, 0.2 ppm) of 0%.
